Target: T1, mitochondrial respiratory chain complex III (CxIII, coenzyme Q-cytochrome c oxidoreductase) (Bos taurus, UniProt P00157+P13272)
T1 construct: gene MT-CYB; native complex in mitochondria isolated from bovine heart
Test: spectrophotometric initial rates of cytochrome c reduction with graded decylubiquinol in isolated mitochondria; reciprocal and Dixon plots
Format: biochemical
Source text: spectrophotometric initial rates of cytochrome c reduction with graded decylubiquinol in isolated mitochondria; reciprocal and Dixon plots on mitochondrial respiratory chain complex III (CxIII, coenzyme Q-cytochrome c oxidoreductase) | indicate a competitive modality of inhibition.

C[C@]12CC[C@H]3[C@@H](CCC4=CC(=O)CC[C@@H]43)[C@@H]1CC[C@@H]2O [ND, nandrolone]
Ki: ~300 µM

Source: paper PMC7010785, “Nandrolone induces a stem cell-like phenotype in human hepatocarcinoma-derived cell line inhibiting mitochondrial respiratory activity” (Scientific Reports, 2020)
